# Laboratory results: patent publication US9624170B2, “4-(piperrazin-1-yl)-pyrrolidin-2-one compounds as monoacylglycerol lipase (MAGL) inhibitors” (TAKEDA PHARMACEUTICAL COMPANY LIMITED, priority 2013, dated 2017)
# Target: T1, human MAGL (His-hMAGL) (Homo sapiens, UniProt Q99685)
# T1 construct: made in house; host or cells: Escherichia coli BL21(DE3)
# T1 sequence (Q99685 1-303): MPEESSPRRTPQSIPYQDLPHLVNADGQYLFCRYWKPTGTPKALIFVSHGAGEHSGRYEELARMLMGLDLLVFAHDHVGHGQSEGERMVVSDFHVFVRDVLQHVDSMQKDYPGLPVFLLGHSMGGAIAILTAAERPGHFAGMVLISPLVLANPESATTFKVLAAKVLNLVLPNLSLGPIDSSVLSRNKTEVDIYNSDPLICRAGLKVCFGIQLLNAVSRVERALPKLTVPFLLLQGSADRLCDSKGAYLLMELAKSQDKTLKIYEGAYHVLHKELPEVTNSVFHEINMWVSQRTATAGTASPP
# Assay: Measurement of MAGL inhibitory activity by mass spectrometry
# Type: biochemical
# Conditions: MAGL inhibitory rate, test compound 10 μM, His-hMAGL, substrate 2-arachidonylglycerol, RapidFire-mass spectrometry
# In short: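 His-tagged human MAGL was reacted with 150 μM 2-arachidonylglycerol substrate (stock, added by 5 μL) for 10 min at room temperature, then stopped with formic acid. Arachidonic acid product was quantified by RapidFire–triple-quadrupole MS in negative SRM mode, corrected by arachidonic acid-d8, and converted to percent inhibition.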
row,Structure (SMILES),inhibition at 10 µM
1,"O=C(c1nccs1)N1CCN(C2CC(=O)N(c3ccc4nc(-c5ccccc5)oc4c3)C2)CC1 (centres unmarked) [Example 387, 1-(2-phenyl-1,3-benzoxazol-6-yl)-4-(4-(1,3-thiazol-2-ylcarbonyl)piperazin-1-yl)pyrrolidin-2-one]",97%
2,"O=C(c1nccs1)N1CCN([C@@H]2CC(=O)N(c3ccc4c(c3)CCN4c3ccnc(C(F)(F)F)n3)C2)CC1 [Example 388, (4R)-4-(4-(1,3-thiazol-2-ylcarbonyl)piperazin-1-yl)-1-(1-(2-(trifluoromethyl)pyrimidin-4-yl)-2,3-dihydro-1H-indol-5-yl)pyrrolidin-2-one]",99%
3,"CC(C)(C)OC(=O)N1CCc2cc(N3CC(N4CCN(c5ncccn5)CC4)CC3=O)ccc21 (centres unmarked) [Example 389, tert-butyl 5-(2-oxo-4-(4-(pyrimidin-2-yl)piperazin-1-yl)pyrrolidin-1-yl)indoline-1-carboxylate]",98%
4,"O=C(c1nccs1)N1CCN([C@@H]2CC(=O)N(c3ccc4c(c3)CCN4c3cnc(C(F)(F)F)cn3)C2)CC1 [Example 390, (4R)-4-(4-(1,3-thiazol-2-ylcarbonyl)piperazin-1-yl)-1-(1-(5-(trifluoromethyl)pyrazin-2-yl)-2,3-dihydro-1H-indol-5-yl)pyrrolidin-2-one]",96%
5,"O=C(c1nccs1)N1CCN([C@@H]2CC(=O)N(c3ccc4c(c3)CCN4c3cnc(C(F)(F)F)nc3)C2)CC1 [Example 391, (4R)-4-(4-(1,3-thiazol-2-ylcarbonyl)piperazin-1-yl)-1-(1-(2-(trifluoromethyl)pyrimidin-5-yl)-2,3-dihydro-1H-indol-5-yl)pyrrolidin-2-one]",90%
6,"O=C(c1nccs1)N1CCN(C2CC(=O)N(c3ccc4c(c3)CCN4C(=O)Cc3ccccc3)C2)CC1 (centres unmarked) [Example 392, 1-(1-(phenylacetyl)-2,3-dihydro-1H-indol-5-yl)-4-(4-(1,3-thiazol-2-ylcarbonyl)piperazin-1-yl)pyrrolidin-2-one]",99%
7,"O=C(c1nccs1)N1CCN(C2CC(=O)N(c3ccc4c(c3)CCN4C(=O)Cc3ccc(Cl)cc3)C2)CC1 (centres unmarked) [Example 393, 1-(1-((4-chlorophenyl)acetyl)-2,3-dihydro-1H-indol-5-yl)-4-(4-(1,3-thiazol-2-ylcarbonyl)piperazin-1-yl)pyrrolidin-2-one]",93%
8,"O=C(c1nccs1)N1CCN(C2CC(=O)N(c3ccc4c(c3)CCN4C(=O)Cc3cccc(Cl)c3)C2)CC1 (centres unmarked) [Example 394, 1-(1-((3-Chlorophenyl)acetyl)-2,3-dihydro-1H-indol-5-yl)-4-(4-(1,3-thiazol-2-ylcarbonyl)piperazin-1-yl)pyrrolidin-2-one]",98%
9,"O=C(c1nccs1)N1CCN(C2CC(=O)N(c3ccc4c(c3)CCN4C(=O)Cc3ccccc3Cl)C2)CC1 (centres unmarked) [Example 395, 1-(1-((2-chlorophenyl)acetyl)-2,3-dihydro-1H-indol-5-yl)-4-(4-(1,3-thiazol-2-ylcarbonyl)piperazin-1-yl)pyrrolidin-2-one]",102%
10,"O=C(c1nccs1)N1CCN(C2CC(=O)N(c3ccc4c(c3)CCN4C(=O)c3ccccc3)C2)CC1 (centres unmarked) [Example 396, 1-(1-benzoyl-2,3-dihydro-1H-indol-5-yl)-4-(4-(1,3-thiazol-2-ylcarbonyl)piperazin-1-yl)pyrrolidin-2-one]",97%
11,"CC(C)CC(=O)N1CCc2cc(N3CC(N4CCN(C(=O)c5nccs5)CC4)CC3=O)ccc21 (centres unmarked) [Example 397, 1-(1-(3-methylbutanoyl)-2,3-dihydro-1H-indol-5-yl)-4-(4-(1,3-thiazol-2-ylcarbonyl)piperazin-1-yl)pyrrolidin-2-one]",101%
12,"O=C(c1nccs1)N1CCN(C2CC(=O)N(c3ccc4c(c3)CCN4C(=O)CC3CC3)C2)CC1 (centres unmarked) [Example 398, 1-(1-(cyclopropylacetyl)-2,3-dihydro-1H-indol-5-yl)-4-(4-(1,3-thiazol-2-ylcarbonyl)piperazin-1-yl)pyrrolidin-2-one]",100%
13,"O=C(c1nccs1)N1CCN(C2CC(=O)N(c3ccc4c(c3)CCN4C(=O)CC(F)(F)F)C2)CC1 (centres unmarked) [Example 399, 4-(4-(1,3-thiazol-2-ylcarbonyl)piperazin-1-yl)-1-(1-(3,3,3-trifluoropropanoyl)-2,3-dihydro-1H-indol-5-yl)pyrrolidin-2-one]",95%
14,"O=C(c1nccs1)N1CCN(C2CC(=O)N(c3ccc4c(c3)CCN4C(=O)C3CCOCC3)C2)CC1 (centres unmarked) [Example 400, 1-(1-(tetrahydro-2H-pyran-4-ylcarbonyl)-2,3-dihydro-1H-indol-5-yl)-4-(4-(1,3-thiazol-2-ylcarbonyl)piperazin-1-yl)pyrrolidin-2-one]",96%
15,"O=C(c1nccs1)N1CCN(C2CC(=O)N(c3ccc4c(c3)CCN4C(=O)CC3CCOCC3)C2)CC1 (centres unmarked) [Example 401, 1-(1-(tetrahydro-2H-pyran-4-ylacetyl)-2,3-dihydro-1H-indol-5-yl)-4-(4-(1,3-thiazol-2-ylcarbonyl)piperazin-1-yl)pyrrolidin-2-one]",94%
16,"O=C(c1nccs1)N1CCN([C@@H]2CC(=O)N(c3cc4ccn(-c5ccc(C(F)(F)F)cn5)c4cn3)C2)CC1 [Example 402, (4R)-4-(4-(1,3-thiazol-2-ylcarbonyl)piperazin-1-yl)-1-(1-(5-(trifluoromethyl)pyridin-2-yl)-1H-pyrrolo[2,3-c]pyridin-5-yl)pyrrolidin-2-one]",94%
17,"O=C1CC(N2CCN(c3ncccn3)CC2)CN1c1cc(F)cc(Br)c1 (centres unmarked) [Example 403, 1-(3-Bromo-5-fluorophenyl)-4-(4-(pyrimidin-2-yl)piperazin-1-yl)pyrrolidin-2-one]",91%
18,"Cc1ncccc1-c1cc(N2CC(N3CCN(c4ncccn4)CC3)CC2=O)ccc1F (centres unmarked) [Example 404, 1-(4-fluoro-3-(2-methylpyridin-3-yl)phenyl)-4-(4-(pyrimidin-2-yl)piperazin-1-yl)pyrrolidin-2-one]",96%
19,"O=C(c1cscn1)N1CCN([C@@H]2CC(=O)N(c3ccc4c(c3)CCN4c3ccc(C(F)(F)F)cc3)C2)CC1 [Example 405, (4R)-4-(4-(1,3-Thiazol-4-ylcarbonyl)piperazin-1-yl)-1-(1-(4-(trifluoromethyl)phenyl)-2,3-dihydro-1H-indol-5-yl)pyrrolidin-2-one]",103%
20,"Cc1ncccc1-c1cc(F)cc(N2CC(N3CCN(c4ncccn4)CC3)CC2=O)c1 (centres unmarked) [Example 406, 1-(3-Fluoro-5-(2-methylpyridin-3-yl)phenyl)-4-(4-(pyrimidin-2-yl)piperazin-1-yl)pyrrolidin-2-one]",98%
21,"COc1cnc(N2CCc3cc(N4C[C@H](N5CCN(C(=O)c6nccs6)CC5)CC4=O)ccc32)nc1 [Example 407, (4R)-1-(1-(5-methoxypyrimidin-2-yl)-2,3-dihydro-1H-indol-5-yl)-4-(4-(1,3-thiazol-2-ylcarbonyl)piperazin-1-yl)pyrrolidin-2-one]",104%
22,"CC(C)(C)OC(=O)N1CCc2cc(N3C[C@H](N4CCN(C(=O)c5cscn5)CC4)CC3=O)ccc21 [Example 408, tert-butyl 5-((4R)-2-oxo-4-(4-(1,3-thiazol-4-ylcarbonyl)piperazin-1-yl)pyrrolidin-1-yl)indoline-1-carboxylate]",103%
23,"CC(C)(C)CC(=O)N1CCc2cc(N3CC(N4CCN(c5ncccn5)CC4)CC3=O)ccc21 (centres unmarked) [Example 409, 1-(1-(3,3-dimethylbutanoyl)-2,3-dihydro-1H-indol-5-yl)-4-(4-(pyrimidin-2-yl)piperazin-1-yl)pyrrolidin-2-one]",94%
24,"COc1ccc(CC(=O)N2CCc3cc(N4CC(N5CCN(c6ncccn6)CC5)CC4=O)ccc32)cn1 (centres unmarked) [Example 410, 1-(1-((6-methoxypyridin-3-yl)acetyl)-2,3-dihydro-1H-indol-5-yl)-4-(4-(pyrimidin-2-yl)piperazin-1-yl)pyrrolidin-2-one]",80%
25,"O=C1CC(N2CCN(c3ncccn3)CC2)CN1c1ccc2c(c1)CCN2C(=O)Cc1ccc(F)cc1 (centres unmarked) [Example 413, 1-(1-((4-fluorophenyl)acetyl)-2,3-dihydro-1H-indol-5-yl)-4-(4-(pyrimidin-2-yl)piperazin-1-yl)pyrrolidin-2-one]",94%
26,"CC(C)(C)CC(=O)N1CCc2cc(N3C[C@H](N4CCN(C(=O)c5cscn5)CC4)CC3=O)ccc21 [Example 414, (4R)-1-(1-(3,3-dimethylbutanoyl)-2,3-dihydro-1H-indol-5-yl)-4-(4-(1,3-thiazol-4-ylcarbonyl)piperazin-1-yl)pyrrolidin-2-one]",100%
27,"O=C(c1cscn1)N1CCN([C@@H]2CC(=O)N(c3ccc4c(c3)CCN4C(=O)Cc3ccc(Cl)cc3)C2)CC1 [Example 415, (4R)-1-(1-((4-chlorophenyl)acetyl)-2,3-dihydro-1H-indol-5-yl)-4-(4-(1,3-thiazol-4-ylcarbonyl)piperazin-1-yl)pyrrolidin-2-one]",97%
28,"O=C(c1cscn1)N1CCN([C@@H]2CC(=O)N(c3ccc4c(c3)CCN4C(=O)Cc3cccc(Cl)c3)C2)CC1 [Example 416, (4R)-1-(1-((3-chlorophenyl)acetyl)-2,3-dihydro-1H-indol-5-yl)-4-(4-(1,3-thiazol-4-ylcarbonyl)piperazin-1-yl)pyrrolidin-2-one]",99%
29,"O=C(c1cscn1)N1CCN([C@@H]2CC(=O)N(c3ccc4c(ccn4-c4ccc(C(F)(F)F)cc4)c3)C2)CC1 [Example 418, (4R)-4-(4-(1,3-Thiazol-4-ylcarbonyl)piperazin-1-yl)-1-(1-(4-(trifluoromethyl)phenyl)-1H-indol-5-yl)pyrrolidin-2-one]",96%
